Data set [1] deals with S. aureus, MRSA 1A-218, 1A-318, 1B-374, 1B-315, 1B-185, 1B387 and MSSA ATCC-6538, ATCC-29213. The data set is described as follows: MIC by standard microdilution method against S. aureus (MRSA and MSSA strains). Type of data set: cell-based. The settings on record: Staphylococcus aureus. Here is the method:
(§1) A standard microdilution method (NCCLS, 2000; Document M7-A5) was used to determine the minimum inhibitory concentrations (MICs) against S. aureus, methicillin-resistant strains (MRSA); 1A-218, 1A-318, 1B-374, 1B-315, 1B-185, 1B387 (Simor et al. 1999 Can Commun Dis Rep; 25:105-108) and methicillin-sensitive strains (MSSA); ATCC-6538 and ATCC-29213. The MICs of some compounds were also determined against other Gram-positive bacteria: Enterococcus faecium (ATCC 51559), Enterococcus faecalis (ATCC-51299, ATCC-29212) and Staphylococcus epidermidis (ATCC-35983).
(§2) Mueller-Hinton broth (MHB) is recommended as the medium of choice for susceptibility testing of commonly isolated, rapidly growing aerobic organisms such as the Gram-positive bacteria included in this study. A “cation-adjusted Mueller-Hinton broth” (Ca-MHB) was prepared by first preparing standard MHB from a dehydrated base as recommended by the manufacturer.
(§3) Single colonies from fresh agar plates of the different bacterial cultures were sub-cultured overnight in 3 ml of Tryptic soy broth (TSB) at 37° C. with shaking at 250 RPM. After 18-20 hours of incubation, the absorbance at λ=600 nm (OD600) were determined for each culture and adjusted to a final OD600=0.1 (4.2×10^7 cfu/ml). Bacterial suspensions were then diluted 1:200 in sterile Ca-MHB for the in vitro susceptibility test, with each well of the microtitre plate containing approximately 2×10^5 cfu/ml.
(§4) Stock solutions of the different test compounds were prepared at concentrations of 1,280 μg/ml, 640 μg/ml, or 320 μg/ml in 50% DMSO (dimethyl sulfoxide). Serial two-fold dilutions were then prepared in 50% DMSO (the working concentrations were 1:10 of the stock concentrations in 100 μl culture suspensions). The filled microtitre plates were sealed in plastic bags and incubated at 35° C. for 24 hr in an ambient air incubator with shaking at 250 RPM. MIC values were determined as the lowest concentration where complete inhibition of the visible bacterial growth was observed by the unaided eye and confirmed by the measurement of the optical density (OD600).

Data set [2] deals with Enterococcus faecium (ATCC-51559). Nature of the data set: MIC by microdilution against Enterococcus faecium. The settings on record: unit not given in Table 4 (Table 3, same method: μg/ml). The data set is classed as cell-based. As for the experimental part: as §1, §2, §3, §4
In data set [3] the test system is Enterococcus faecalis (ATCC-51299). The data set is described as follows: MIC by microdilution against Enterococcus faecalis ATCC-51299. The data set is classed as cell-based. Particulars: unit not given in Table 4 (Table 3, same method: μg/ml). As for the experimental part:
as §1, §2, §3, §4

The subject of data set [4] is MRSA 1B-387. The data set is described as follows: In vivo anti-bacterial activity, ICR mice inoculated I.P. with MRSA, oral treatment. Particulars: Staphylococcus aureus. Here is the method: For in vivo studies, groups of 5-10 female ICR mice (6-7 weeks) were inoculated intraperitonially with 3-8×10^7 CFU MRSA 1B-387 per mouse in 400 μl of 5% mucin. The test compounds at concentrations of 50 or 100 mg/kg were administered orally immediately after the bacterial inoculation and again 3 hours later. The selected dosages were administered twice daily throughout the experiment. The efficacy of the treatment was evaluated by comparison of mortality between the experimental and control groups (Table 5).

For data set [5], the system named is Candida albicans (ATCC 24433). Nature of the data set: In vitro anti-fungal activity, microdilution against Candida albicans. The data set is classed as cell-based. The settings on record: ATCC24433, C. albicans ATCC 24433, compound 25 μg/ml. As for the experimental part:
A microdilution method was used to determine the anti-fungal activity of different test compounds against Candida albicans (ATCC 24433) at 25 μg/ml. RPMI-1640 broth is recommended as the medium of choice for susceptibility testing of C. albicans (NCCLS, 2002; Document M27-A2) and was used in this study. The broth was buffered to pH 7.0 and then sterilized using a 250 ml vacuum driven disposable 0.45 um filtration system.
C. albicans was sub-cultured from a −80° C. stock onto Sabouraud dextrose agar and incubated for 24-48 hrs at 37° C. The fungi inoculum was prepared by picking five colonies of ˜1 mm in diameter from 24-48 hr old cultures. The colonies were then suspended in 5 ml of sterile normal saline (8.5 g/L NaCl; 0.85% saline) diluted 1:50 and further diluted 1:20 with medium to obtain two-fold inoculum (1-5×10^3 cfu/ml). […] The microtitre plates were then sealed in plastic bags and incubated at 35° C. for 24-48 hrs in an ambient air incubator with shaking at 250 RPM.
Inhibition of visible growth of C. albicans in the microtitre plate wells was assessed by the unaided eye and confirmed by OD600 reading. […] The MIC values of compounds with significant activity are also included.
(Broth dilution looks for growth in wells or tubes with falling amounts of substance.)

In a further data set the test system is MRSA-1B387. The data set is described as follows: In vivo inhibition of MRSA, acute infection in immunosuppressed CB17-SCID mice. Further details: species or system Staphylococcus aureus. Particulars: 5×10^6 MRSA-1B387 in 5% mucin, 50 mg/kg I.P. immediately and 3 hours after inoculation. As for the experimental part:
Triaryl-imidazole compounds were tested in vivo for antibacterial activity against MRSA in a model of acute infection using immunosuppressed mice. Suspensions of 400 μL containing 5×10^6 MRSA-1B387 bacteria in 5% mucin were injected into groups of 5-10 female, 8-14 weeks CB17-SCID mice. Under these conditions bacterial infection produced 80-100% lethality in less than 48 hours. Each group of inoculated mice was treated with 50 mg/kg of the respective compound intraperitoneally (I.P.) immediately and 3 hours after bacterial inoculation.

Data set [6] concerns Enterococcus faecalis (ATCC-29212). Nature of the data set: MIC by microdilution against Enterococcus faecalis ATCC-29212. The data set is classed as cell-based. The settings on record: unit not given in Table 4 (Table 3, same method: μg/ml). As for the experimental part:
as §1, §2, §3, §4

Data set [7] deals with Staphylococcus epidermidis (ATCC-35983). The data set is described as follows: MIC by microdilution against Staphylococcus epidermidis. The data set is classed as cell-based. The settings on record: unit not given in Table 4 (Table 3, same method: μg/ml). Here is the method:
as §1, §2, §3, §4

The test system of data set [8] is MRSA 1B-387. Nature of the data set: In vivo anti-bacterial activity, ICR mice inoculated I.P. with MRSA, oral treatment. The settings on record: Staphylococcus aureus. This is another data set of the same source.
The subject of data set [9] is Methicillin-Resistant Staphylococcus aureus (MRSA), CMRSA-1B. Nature of the data set: MIC by sequential macrodilution (tube) broth method against MRSA. Type of data set: cell-based. Further details: key: (+): Positive visual bacterial growth; (−): Negative visual bacterial growth. The settings on record: 37° C. overnight. As for the experimental part:
(Nat. Committee for Clinical Laboratory Standards. Document M7-A5 2000, 20; 1-25). Bacterial suspensions containing 5×10^5 colony-forming units (CFU) were incubated with serial two-fold dilutions of each drug at 37° C. overnight, and growth was monitored visually. The range of MIC values among the triaryl-imidazole derivatives was 12.5-50 μg/ml.

Data set [10] concerns multi-drug resistant Staphylococcus aureus (CMRSA-1B). Nature of the data set: Bactericidal effect against MRSA (CFU plating on TSA). The data set is classed as cell-based. Particulars: overnight with compound, plated on TSA, CFU count (FIG. 1). Here is the method:
Serial dilutions of liquid cultures were incubated with the compounds at 37° C. overnight and then plated on Tryptic Soy Agar (TSA) plates. After incubation for 17 hours at 37° C., the number of live bacteria was calculated from the number of colonies grown per milliliter of culture and expressed as colony-forming units (CFU).

The format of data set [11] is in vivo. Particulars: mice; injected 200 mg/kg per day. As for the experimental part:
In vivo acute toxicity tests were conducted using compounds 1, 2, 3 and 4. Mice were injected with each of the above compounds at a concentration of 200 mg/kg per day.

[12] abbreviates: against all 8 strains of S. aureus tested except where indicated, microdilution, Ca-MHB, 35° C., 24 hr, read-out: MIC.

Converted amounts (≈) assume the structure as drawn. Read-outs that look alike come from different tables or passages of the source. Some results are limits rather than exact numbers.

A word on the inhibition: it is the share of the control response that was lost under treatment. As to `Cc1[nH]c2ccccc2c1-c1nc(-c2ccc(Br)cc2)c(-c2ccc(Br)cc2)[nH]1` [Compound 13], the values for the MIC in data set [1] (setting [12]), in data set [2] and in data set [3] were 2 to 4 µg/mL (≈ 3.94 to 7.89 µM), 32 and 32, respectively. The responders at 100 mg/kg in the data set with MRSA 1B-387 [4] and in the data set with MRSA 1B-387 [4] (read-out: Survival %) was 20% in each case. In addition, the inhibition at 25 µg/mL came to 0% in data set [5] (24 h, read-out: Inhibition (%) after 24 h) and 0% in data set [5] (48 h, read-out: Inhibition (%) after 48 h).
What is called melting point is the temperature, or range, at which the solid turns liquid. With `Brc1ccc2[nH]cc(-c3nc(-c4ccc(-c5ccccc5)cc4)c(-c4ccc(-c5ccccc5)cc4)[nH]3)c2c1` [Compound 41], the melting point was 155 to 158 °C. Besides, the MIC in data set [1] (setting [12]) is more than 128 µg/mL.
For `CN[C@H](CC(C)C)C(=O)N[C@H]1C(=O)N[C@@H](CC(N)=O)C(=O)N[C@H]2C(=O)N[C@H]3C(=O)N[C@H](C(=O)N[C@H](C(=O)O)c4cc(O)cc(O)c4-c4cc3ccc4O)[C@H](O)c3ccc(c(Cl)c3)Oc3cc2cc(c3O[C@@H]2O[C@H](CO)[C@@H](O)[C@H](O)[C@H]2O[C@H]2C[C@](C)(N)[C@H](O)[C@H](C)O2)Oc2ccc(cc2Cl)[C@H]1O` [Vancomycin, reference compound], the “Survival (%)” value in the data set with MRSA-1B387 is 100%. Moreover, the MIC in [2] was more than 128; in data set [3], 32; in data set [6] it was 4; in [7], 2.
The compound `Cc1[nH]c2ccccc2c1-c1nc(-c2ccc(Cl)cc2)c(-c2ccc(Cl)cc2)[nH]1` [Compound 19] gave a melting point of 165 to 167 °C. In addition, in data set [1] (setting [12]), the MIC was determined as 4 µg/mL (≈ 9.56 µM). This compound yielded an MIC in data set [2] of 8. In addition, the MIC in data set [3] is 8. Further, the MIC in data set [6] is given as 8. The compound also yielded an MIC in data set [7] of 4.
In the case of `Brc1ccc2[nH]cc(-c3nc4c5ccccc5c5ccccc5c4[nH]3)c2c1` [Compound 45], in [1] (24 h), the MIC worked out at 0.5 µg/mL (≈ 1.21 µM). In addition, the responders at 100 mg/kg came out at 10% in the data set with MRSA 1B-387 [4] and 20% in the data set on MRSA 1B-387 [4] (read-out: Survival %). The responders at 200 mg/kg with MRSA 1B-387 [8] and in the data set on MRSA 1B-387 [8] (read-out: Survival %) was 40% each time.
With `Cc1[nH]c2ccccc2c1-c1nc(-c2ccccc2)c(-c2ccccc2)[nH]1` [Compound 2], the visual bacterial growth entry is “+” in data set [9] (Conc. 3.12 μg/ml); “+” in [9] (Conc. 6.25 μg/ml); “−” in data set [9] (Conc. 12.50 μg/ml); “−” in data set [9] (Conc. 25.00 μg/ml); “−” in data set [9] (Conc. 50.00 μg/ml); “−” in data set [9] (Conc. 100.00 μg/ml). In [10], the “bactericidal or bacteriostatic effect at the corresponding MIC” value was “bactericidal effect”. Also, the “Survival (%)” value in the data set on MRSA-1B387 amounted to 80%. Moreover, the “acute toxicity (symptoms of sickness, total weight, organ weight and appearance)” value in data set [11] is “no toxic effects”. Besides, the MIC in [1] (setting [12]) is 8 to 16 µg/mL (≈ 22.9 to 45.8 µM); in data set [2] it was 16; in data set [3], 16; in data set [6] it was 16; in [7], 16.
